Tests used:
[1] = tested on: S. cerevisiae Δrev3 mutants; assay: Survival of S. cerevisiae Δrev3 mutants after ultraviolet radiation or MMS; type: cell-based, Saccharomyces cerevisiae; details: 100 μM; UV or 0.03% MMS
Description: (§1) To determine if compounds Ia and Ib inhibit the function of Ubc13p-Mms2p, their capacity to mimic in S. cerevisiae the DNA repair phenotypes generated by the null mutation of ubc13 was evaluated. Thus, mutant strains in RAD6 or REV3 and the parent strain thereof (control) were used in viability assays after the exposure to ultraviolet radiation or MMS. The genotypes of the strains used are the following:
3) Strain Δrev3: MAT at his3Δ1 leu2Δ0 lys2Δ0 ura3Δ0 rev3::kanMX4
(§2) Cells were inoculated in liquid cultures with YPD medium overnight at 30° C., until reaching the log phase of growth. For the treatments with ultraviolet radiation, aliquots of cells, grown in the presence or absence of 100 μM of compounds Ia or Ib were irradiated in a Stratalinker instrument (Stratagene) at the energies indicated in FIGS. 7 and 8. For the treatment with the mutagenic agent MMS, aliquots of cells grown or not in medium with 100 μM of compounds Ia or Ib were incubated, 0.03% MMS being added, with subsequent incubation for the times indicated in FIGS. 7 and 8. After either treatment, 500 cells were seeded in plates with YPD medium, counting the colonies after 2 days.

UBC13-UEV1 interaction = biological target: T1, UBC13-UEV1 interaction (Homo sapiens, UniProt P61088); assay: Two-hybrid assay in yeasts for the UBC13-UEV1 interaction (β-galactosidase); type: cell-based; details: read-out: inhibition of the interaction between UBC13 and UEV1
T1 construct: expressed in transfected cells; host or cells: Saccharomyces cerevisiae strain AH109
T1 sequence (P61088 1-152): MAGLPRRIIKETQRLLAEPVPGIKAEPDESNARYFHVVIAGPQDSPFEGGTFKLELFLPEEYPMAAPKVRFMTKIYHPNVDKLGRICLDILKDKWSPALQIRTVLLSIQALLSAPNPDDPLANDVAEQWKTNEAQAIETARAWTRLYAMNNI
Text: The interaction between UBC13 and UEV1 is detected by means of two-hybrid assays in yeast. The protein forms of UBC13 and UEV1 used in the following examples are of Homo sapiens. The UBC13 protein, also referred to as UBE2N (HUGO nomenclature) has the following identifiers: NCBI-GI: 4507793, UniProt: P61088 and [EC:6.3.2.19]. The UEV1 protein, also referred to as UBE2V1 (HUGO nomenclature), has the following identifiers: NCBI-GI: 73765546 and UniProt: {tilde under (O)}13404. In this assay, UBC13 is expressed as a fusion protein with the Gal4 DNA-binding domain (DBD-UBC13) from the plasmid pBD-UBC13, and UEV1 is expressed as a fusion protein with the Gal4 transcriptional activation domain (AD-UEV1) from the plasmid pACT2-UEV1. Both plasmids are cotransfected in the Saccharomyces cerevisiae strain AH109, being grown on plates with […] without leucine or tryptophan, selecting only the colonies expressing […] for these two amino acids, i.e., those containing the two co-transfected plasmids. […]

[2] = tested on: S. cerevisiae Δrad6 mutants; assay: Survival of S. cerevisiae Δrad6 mutants after ultraviolet radiation or MMS; type: cell-based, Saccharomyces cerevisiae; details: 100 μM; for rescue of the rad6 phenotype generated by treatment with MMS (survival): 0.03% MMS; for rescue of the rad6 phenotype induced by UV irradiation (survival): ultraviolet radiation
Description: as §1
2) Strain Δrad6: MAT at his3Δ1 leu2Δ0 lys2Δ0 ura3Δ0 rad6::kanMX4
as §2

Compound	sensitization of Δrev3 cells to UV radiation or exposure to MMS [1]	inhibition at 100 µM (UBC13-UEV1 interaction) [%]	rescue of the rad6 phenotype generated by treatment with MMS (survival) [2]	rescue of the rad6 phenotype induced by UV irradiation (survival) [2]
NC(=O)CN(CCc1ccccn1)C(=O)C1CC(=O)N(CCc2ccc(F)cc2)CC(=O)N1CCc1ccc(F)cc1 (stereo not shown) [Ia, N-aminocarbamoylmethyl-N-(2′-(2″pyridyl)ethyl)-1,4-bis[2′-(4″-fluorophenyl)ethyl]-3,7-dioxo-[1,4]diazepane-5-carboxamide]	caused a higher sensitization of the cells	~60	to a lesser extent	clearly rescued the rad6 phenotype
NC(=O)CN(CCc1ccccn1)C(=O)CC1C(=O)N(CCc2ccc(F)cc2)CC(=O)N1CCc1ccc(F)cc1 (stereo not shown) [Ib, 1,4-bis[2′-(4″-fluorophenyl)ethyl]-2-[N-aminocarbonylmethyl-N-(2′-(2″-pyridyl)ethyl)-carbonylmethyl]piperazine-3,6-dione]		~40	to a lesser extent	clearly rescued the rad6 phenotype

— US8785430B2, “Compound that can inhibit UBC13-UEV interactions, pharmaceutical compositions and therapeutic uses” (Consejo Superior de Investigaciones Cientificas, priority 2006, dated 2014)
